Experimental data reported in ChEMBL document CHEMBL1201862, “PubChem BioAssay data set” (2004).
Calls of active or inactive are those of the source.

Assays:
Leucine aminopeptidase = biological target: T1, Leucine aminopeptidase (Plasmodium falciparum 3D7, UniProt Q8IL11); assay: P. falciparum M17LAP inhibitors, primary screen, biochemical, fluorogenic H-Leu-NHMec substrate, 1536-well (AID 1619); assay type: functional
T1 sequence (Q8IL11 whole entry): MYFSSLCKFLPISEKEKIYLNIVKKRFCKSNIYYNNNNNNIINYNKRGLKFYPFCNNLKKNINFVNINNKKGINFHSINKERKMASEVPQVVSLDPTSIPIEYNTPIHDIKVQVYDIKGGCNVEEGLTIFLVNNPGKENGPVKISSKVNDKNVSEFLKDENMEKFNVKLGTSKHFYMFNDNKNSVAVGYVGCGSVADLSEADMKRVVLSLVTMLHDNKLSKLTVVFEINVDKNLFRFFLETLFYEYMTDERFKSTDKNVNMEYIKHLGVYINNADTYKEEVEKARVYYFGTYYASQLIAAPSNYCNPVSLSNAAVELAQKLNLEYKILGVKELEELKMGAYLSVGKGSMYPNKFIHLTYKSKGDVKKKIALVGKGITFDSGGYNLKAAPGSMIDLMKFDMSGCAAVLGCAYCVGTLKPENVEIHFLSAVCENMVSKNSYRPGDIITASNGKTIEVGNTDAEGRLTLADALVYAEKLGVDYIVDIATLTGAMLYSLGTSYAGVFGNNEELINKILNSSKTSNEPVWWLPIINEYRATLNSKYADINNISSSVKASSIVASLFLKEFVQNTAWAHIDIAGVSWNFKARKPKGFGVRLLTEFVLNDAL

[1] = biological target: T2, COUP transcription factor 2 (Homo sapiens, UniProt P24468); assay: Luminescence-based cell-based high throughput dose response assay to identify inhibitors of COUP-TFII (NR2F2).; assay type: functional;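 further: HEK293 cells transiently cotransfected with COUP-TFII expression vector and reporter; luciferase reporter luminescence driven by COUP-TFII from the pX2-168 reporter plasmid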
T2 sequence (P24468 whole entry): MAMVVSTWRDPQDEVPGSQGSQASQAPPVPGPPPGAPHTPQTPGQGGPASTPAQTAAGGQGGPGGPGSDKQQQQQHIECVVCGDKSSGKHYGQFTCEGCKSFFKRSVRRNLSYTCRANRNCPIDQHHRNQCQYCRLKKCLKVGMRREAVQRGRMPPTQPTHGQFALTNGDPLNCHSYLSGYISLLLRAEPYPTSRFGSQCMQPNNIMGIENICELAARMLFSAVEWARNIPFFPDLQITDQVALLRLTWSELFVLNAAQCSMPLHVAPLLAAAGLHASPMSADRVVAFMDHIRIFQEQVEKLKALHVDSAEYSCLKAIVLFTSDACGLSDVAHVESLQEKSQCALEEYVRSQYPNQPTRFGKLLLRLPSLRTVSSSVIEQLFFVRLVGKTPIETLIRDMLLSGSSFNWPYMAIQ

Fatty acid synthase [2] = biological target: T3, Fatty acid synthase (Homo sapiens, UniProt P49327); assay: inhibition of human FAS-TE enzyme activity – biochemical, kinetic fluorescence intensity, dose response (AID 624326); assay type: functional;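 further: rate of fluorescence rise from hydrolysis of a fluorogenic O-methyl fluorescein ester substrate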
[3] = biological target: T4, Microphthalmia-associated transcription factor (Homo sapiens, UniProt O75030); assay: reducers of TRPM1 reporter luminescence, concentration series – cell-based, SK-MEL-5, cherry-picked, set 3, MITF inhibitor project, dose response (AID 493073); assay type: functional;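 further: SK-MEL-5 melanoma cells with luciferase driven by the MITF target TRPM1 promoter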
T4 sequence (O75030 whole entry): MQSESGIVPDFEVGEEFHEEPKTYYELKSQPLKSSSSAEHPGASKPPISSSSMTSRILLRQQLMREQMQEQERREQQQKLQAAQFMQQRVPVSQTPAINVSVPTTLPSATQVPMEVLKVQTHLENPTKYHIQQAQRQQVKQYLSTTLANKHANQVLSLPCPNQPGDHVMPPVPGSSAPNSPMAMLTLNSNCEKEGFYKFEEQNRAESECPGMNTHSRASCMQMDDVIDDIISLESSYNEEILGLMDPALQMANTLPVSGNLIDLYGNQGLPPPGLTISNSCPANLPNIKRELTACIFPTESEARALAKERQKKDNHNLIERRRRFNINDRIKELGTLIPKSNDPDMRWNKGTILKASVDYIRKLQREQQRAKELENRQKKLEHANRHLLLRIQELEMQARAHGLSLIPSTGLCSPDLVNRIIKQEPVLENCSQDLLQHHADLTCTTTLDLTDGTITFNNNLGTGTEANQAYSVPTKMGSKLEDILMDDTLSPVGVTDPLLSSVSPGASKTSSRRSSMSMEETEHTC

Fatty acid synthase [4] = biological target: T3, Fatty acid synthase; assay: inhibition of human FAS-TE enzyme activity – biochemical, endpoint fluorescence intensity, uHTS hits, dose response (AID 624327); assay type: functional;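 further: fluorescence from hydrolysis of an O-methyl fluorescein acyl ester substrate by the enzyme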
Coagulation factor XII = biological target: T5, Coagulation factor XII (Homo sapiens, UniProt P00748); assay: activated coagulation factor XII inhibitor potency, concentration-effect curve, cell-free (AID 716); assay type: functional
T5 sequence (P00748 whole entry): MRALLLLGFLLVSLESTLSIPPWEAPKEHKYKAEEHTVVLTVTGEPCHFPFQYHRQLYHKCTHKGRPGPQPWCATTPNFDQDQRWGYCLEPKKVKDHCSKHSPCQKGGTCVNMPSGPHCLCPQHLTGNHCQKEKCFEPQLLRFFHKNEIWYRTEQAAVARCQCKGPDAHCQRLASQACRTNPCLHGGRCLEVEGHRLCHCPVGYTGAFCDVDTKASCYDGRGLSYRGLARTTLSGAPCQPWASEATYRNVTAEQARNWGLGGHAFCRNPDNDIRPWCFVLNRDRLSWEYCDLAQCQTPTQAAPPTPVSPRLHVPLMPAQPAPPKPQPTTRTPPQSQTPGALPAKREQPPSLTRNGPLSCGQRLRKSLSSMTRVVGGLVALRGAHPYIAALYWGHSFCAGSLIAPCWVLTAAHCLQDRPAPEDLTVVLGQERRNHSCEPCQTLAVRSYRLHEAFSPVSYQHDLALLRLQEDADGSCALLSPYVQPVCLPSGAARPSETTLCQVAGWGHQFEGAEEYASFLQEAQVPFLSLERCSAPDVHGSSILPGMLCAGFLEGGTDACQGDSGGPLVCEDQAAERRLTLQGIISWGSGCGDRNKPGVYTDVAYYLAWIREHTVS

[5] = Vero E6 cell cytotoxicity, dose response, cytotoxicity control for non-replicating M. tuberculosis project, secondary assay (AID 492998); assay type: functional, VeroE6; conditions: Vero C1008
[6] = HepG2 cell cytotoxicity, dose response, cytotoxicity control for non-replicating M. tuberculosis project (AID 489018); assay type: functional; conditions: Mycobacterium tuberculosis
cells = assay type: functional
[7] = THP-1 cell cytotoxicity, dose response, cytotoxicity control for non-replicating M. tuberculosis project (AID 489025); assay type: functional
[8] = viability loss in human Jurkat cells – cell-based, luminescence, cytotoxicity control for P. falciparum gametocyte viability project, dose response (AID 1117277); assay type: functional;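 further: potency reflects loss of cellular ATP meaning fewer viable cells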
[9] = viability inhibitors of stage V gametocytes – luminescence, dose response (AID 1117278); assay type: functional, cell-based;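 further: gametocytes exposed to compound for 24 hours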
Caspase-6 = biological target: T6, Caspase-6 (Homo sapiens, UniProt P55212); assay: inhibition of CASP6 peptide cleavage – biochemical, VEID-R110 fluorescence, cherry-pick, dose response (AID 720632)
T6 sequence (P55212 whole entry): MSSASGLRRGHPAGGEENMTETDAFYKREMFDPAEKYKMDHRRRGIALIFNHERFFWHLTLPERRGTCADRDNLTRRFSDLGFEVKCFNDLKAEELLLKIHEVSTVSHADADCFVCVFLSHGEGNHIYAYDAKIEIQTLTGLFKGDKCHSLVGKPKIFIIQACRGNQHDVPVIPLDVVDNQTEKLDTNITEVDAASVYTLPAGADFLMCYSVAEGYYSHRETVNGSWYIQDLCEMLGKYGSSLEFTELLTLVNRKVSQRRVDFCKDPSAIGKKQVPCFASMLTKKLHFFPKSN

[10] = biological target: DNA dC->dU-editing enzyme APOBEC-3G (Homo sapiens, UniProt Q9HC16); assay type: functional;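 further: Dose-response counterscreen measuring inhibition of APOBEC3G DNA deaminase activity, run while confirming APOBEC3A inhibitors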
[11] = biological target: DNA dC->dU-editing enzyme APOBEC-3A (Homo sapiens, UniProt P31941); assay: Dose Response confirmation of small molecule APOBEC3A DNA Deaminase Inhibitors via a fluorescence-based single-stranded DNA deaminase assay. [Related pubchem assays (depositor defined):AID493011, AID493024]; assay type: functional
[12] = HPDE-C7 pancreatic duct cell viability loss – fluorescence, HTS (AID 430); assay type: functional, cell-based; conditions: Homo sapiens
[13] = viability loss of HPDE-C7K cells – cell-based, fluorescence, HTS, primary screen (AID 431); assay type: functional; conditions: Homo sapiens
Prothrombin = Prothrombin (Homo sapiens, UniProt P00734); assay: Thrombin 1536 HTS Dose Response Confirmation. [Related pubchem assays: 1046 (Thrombin 1536 HTS; hits were confirmed in this assay)]; assay type: functional
[14] = biological target: Melanin-concentrating hormone receptor 1 (Homo sapiens, UniProt Q99705); assay: Fluorescence-based counterscreen for antagonists of the G-protein coupled receptor 7 (GPR7): cell-based high throughput dose response assay to identify antagonists of the melanin-concentrating hormone receptor 1 (MCHR1).; assay type: functional
HT-1080 = assay: HT1080 cell viability loss – fluorescence readout (AID 620); assay type: functional, cell-based; conditions: Homo sapiens
[15] = biological target: Luciferin 4-monooxygenase (Photinus pyralis, UniProt P08659); assay: Counter Screen for Luciferase-based Assay Positives. [Related pubchem assays: 620, 618, 411 ]
Luciferin 4-monooxygenase, sequence (P08659 whole entry): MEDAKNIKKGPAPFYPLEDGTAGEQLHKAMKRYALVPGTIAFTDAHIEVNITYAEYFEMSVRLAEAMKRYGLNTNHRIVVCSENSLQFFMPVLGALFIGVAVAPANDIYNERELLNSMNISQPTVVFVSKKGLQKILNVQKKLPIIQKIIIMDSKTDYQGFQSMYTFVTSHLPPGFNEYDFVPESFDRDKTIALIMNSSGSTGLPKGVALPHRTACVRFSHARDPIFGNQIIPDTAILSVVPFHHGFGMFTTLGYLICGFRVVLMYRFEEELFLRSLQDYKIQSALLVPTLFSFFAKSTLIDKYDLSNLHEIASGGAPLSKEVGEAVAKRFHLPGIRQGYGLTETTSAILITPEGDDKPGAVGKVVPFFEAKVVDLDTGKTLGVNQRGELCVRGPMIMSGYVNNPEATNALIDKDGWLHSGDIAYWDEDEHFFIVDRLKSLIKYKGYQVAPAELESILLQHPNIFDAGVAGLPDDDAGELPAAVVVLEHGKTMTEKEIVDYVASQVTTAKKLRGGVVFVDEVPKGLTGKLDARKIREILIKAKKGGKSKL

T3 sequence (P49327 whole entry): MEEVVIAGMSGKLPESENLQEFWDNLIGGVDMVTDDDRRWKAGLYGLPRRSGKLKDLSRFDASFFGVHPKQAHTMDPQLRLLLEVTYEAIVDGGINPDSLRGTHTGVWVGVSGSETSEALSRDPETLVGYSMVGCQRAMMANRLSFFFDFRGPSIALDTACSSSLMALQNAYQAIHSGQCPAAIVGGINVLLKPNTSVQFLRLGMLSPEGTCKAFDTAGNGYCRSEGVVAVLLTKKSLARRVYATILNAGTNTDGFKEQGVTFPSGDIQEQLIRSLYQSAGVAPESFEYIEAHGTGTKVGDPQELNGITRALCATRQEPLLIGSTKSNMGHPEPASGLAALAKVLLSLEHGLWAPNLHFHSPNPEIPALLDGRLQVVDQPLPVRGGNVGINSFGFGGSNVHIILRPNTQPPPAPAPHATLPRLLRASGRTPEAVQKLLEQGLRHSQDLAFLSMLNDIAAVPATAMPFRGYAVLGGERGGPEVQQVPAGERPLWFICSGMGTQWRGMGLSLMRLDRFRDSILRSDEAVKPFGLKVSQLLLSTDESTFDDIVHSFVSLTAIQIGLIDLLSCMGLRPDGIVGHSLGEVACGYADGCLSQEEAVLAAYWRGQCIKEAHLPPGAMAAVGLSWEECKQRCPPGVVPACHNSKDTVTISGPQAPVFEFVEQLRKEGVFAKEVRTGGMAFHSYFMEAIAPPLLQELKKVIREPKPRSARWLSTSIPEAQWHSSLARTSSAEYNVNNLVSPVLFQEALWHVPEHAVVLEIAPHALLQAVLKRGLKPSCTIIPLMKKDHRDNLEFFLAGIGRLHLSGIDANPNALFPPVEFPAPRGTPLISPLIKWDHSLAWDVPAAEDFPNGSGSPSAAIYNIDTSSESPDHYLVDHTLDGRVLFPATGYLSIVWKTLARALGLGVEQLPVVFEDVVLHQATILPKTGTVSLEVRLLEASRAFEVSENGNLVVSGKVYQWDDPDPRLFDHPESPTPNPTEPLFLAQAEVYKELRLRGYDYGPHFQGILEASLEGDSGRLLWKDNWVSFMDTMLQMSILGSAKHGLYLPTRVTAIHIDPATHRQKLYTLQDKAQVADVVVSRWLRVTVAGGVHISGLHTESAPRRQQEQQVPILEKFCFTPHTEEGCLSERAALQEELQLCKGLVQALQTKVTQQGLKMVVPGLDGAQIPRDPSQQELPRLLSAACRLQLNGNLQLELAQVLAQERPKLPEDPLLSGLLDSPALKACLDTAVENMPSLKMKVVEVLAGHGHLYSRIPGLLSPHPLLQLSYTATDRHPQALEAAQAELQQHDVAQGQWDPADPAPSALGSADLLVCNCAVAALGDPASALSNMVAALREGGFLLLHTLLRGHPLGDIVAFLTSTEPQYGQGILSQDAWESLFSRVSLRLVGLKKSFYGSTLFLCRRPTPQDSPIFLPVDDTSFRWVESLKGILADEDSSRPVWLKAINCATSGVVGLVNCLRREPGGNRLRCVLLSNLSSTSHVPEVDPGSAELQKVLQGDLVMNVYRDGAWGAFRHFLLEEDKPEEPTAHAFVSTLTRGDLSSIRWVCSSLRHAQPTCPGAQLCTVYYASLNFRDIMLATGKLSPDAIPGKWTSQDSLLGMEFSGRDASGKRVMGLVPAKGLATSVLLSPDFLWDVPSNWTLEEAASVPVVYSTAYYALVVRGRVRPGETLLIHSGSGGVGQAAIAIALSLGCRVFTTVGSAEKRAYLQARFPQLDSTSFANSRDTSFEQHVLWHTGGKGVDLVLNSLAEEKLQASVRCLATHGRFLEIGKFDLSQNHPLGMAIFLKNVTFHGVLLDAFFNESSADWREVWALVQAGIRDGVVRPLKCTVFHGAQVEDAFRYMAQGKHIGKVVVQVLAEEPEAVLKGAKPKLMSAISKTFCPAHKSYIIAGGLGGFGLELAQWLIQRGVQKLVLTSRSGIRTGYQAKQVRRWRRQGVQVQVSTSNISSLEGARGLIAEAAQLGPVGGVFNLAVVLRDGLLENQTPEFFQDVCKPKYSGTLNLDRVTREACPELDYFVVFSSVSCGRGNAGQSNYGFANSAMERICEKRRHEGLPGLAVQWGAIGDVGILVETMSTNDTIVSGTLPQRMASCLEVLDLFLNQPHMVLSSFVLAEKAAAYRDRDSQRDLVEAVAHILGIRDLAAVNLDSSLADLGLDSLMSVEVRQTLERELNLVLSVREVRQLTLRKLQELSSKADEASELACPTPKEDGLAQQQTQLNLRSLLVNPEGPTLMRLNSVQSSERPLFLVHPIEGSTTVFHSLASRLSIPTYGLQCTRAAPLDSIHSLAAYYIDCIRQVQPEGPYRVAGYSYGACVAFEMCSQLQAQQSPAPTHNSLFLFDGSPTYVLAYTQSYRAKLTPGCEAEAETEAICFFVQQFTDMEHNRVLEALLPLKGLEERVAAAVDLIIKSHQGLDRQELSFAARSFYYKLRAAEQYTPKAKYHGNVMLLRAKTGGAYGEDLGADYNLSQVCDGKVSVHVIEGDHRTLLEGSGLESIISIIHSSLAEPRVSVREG
DNA dC->dU-editing enzyme APOBEC-3A, sequence (P31941 whole entry): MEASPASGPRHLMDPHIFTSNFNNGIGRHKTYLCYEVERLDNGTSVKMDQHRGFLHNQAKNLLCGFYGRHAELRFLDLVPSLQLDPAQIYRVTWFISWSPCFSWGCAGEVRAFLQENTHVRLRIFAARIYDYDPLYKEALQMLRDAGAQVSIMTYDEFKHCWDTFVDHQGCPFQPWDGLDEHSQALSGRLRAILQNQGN
DNA dC->dU-editing enzyme APOBEC-3G, sequence (Q9HC16 whole entry): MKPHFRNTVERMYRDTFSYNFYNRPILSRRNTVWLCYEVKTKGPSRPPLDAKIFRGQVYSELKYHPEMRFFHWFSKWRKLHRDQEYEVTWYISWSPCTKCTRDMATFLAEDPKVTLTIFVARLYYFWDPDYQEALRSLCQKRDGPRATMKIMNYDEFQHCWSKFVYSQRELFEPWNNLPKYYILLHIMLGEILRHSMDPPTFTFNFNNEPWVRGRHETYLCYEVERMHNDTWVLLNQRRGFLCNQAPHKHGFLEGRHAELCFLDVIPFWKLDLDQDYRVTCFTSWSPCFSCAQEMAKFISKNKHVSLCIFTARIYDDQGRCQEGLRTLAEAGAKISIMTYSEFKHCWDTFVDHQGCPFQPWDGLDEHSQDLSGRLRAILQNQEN
Melanin-concentrating hormone receptor 1, sequence (Q99705 whole entry): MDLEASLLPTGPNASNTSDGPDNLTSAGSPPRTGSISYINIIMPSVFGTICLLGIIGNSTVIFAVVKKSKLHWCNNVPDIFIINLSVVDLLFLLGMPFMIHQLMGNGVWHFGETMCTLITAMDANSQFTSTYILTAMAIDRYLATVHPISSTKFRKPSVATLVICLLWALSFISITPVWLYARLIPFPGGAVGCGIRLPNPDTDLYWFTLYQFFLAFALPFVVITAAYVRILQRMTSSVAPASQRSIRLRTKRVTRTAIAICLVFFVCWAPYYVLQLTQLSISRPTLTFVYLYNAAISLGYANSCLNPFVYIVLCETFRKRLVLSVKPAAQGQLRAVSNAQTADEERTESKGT

CC(C)(C)c1ccc(/C=N/Nc2ccc(C(=O)O)cc2)cc1
IC50 (Leucine aminopeptidase): 13.3 µM (active) | IC50 [1]: > 9.49 µM (active) | IC50 (Fatty acid synthase [2]): 8.76 µM (active) | AC50 [3]: 6.03 µM (active) | IC50 (Fatty acid synthase [4]): 7.49 µM (active)

COc1ccc(-n2c(Cc3cccs3)nnc2SCC(=O)Nc2ccc3c(c2)OCCO3)cc1
IC50 (Coagulation factor XII): > 50 µM (inactive)

Oc1nc(-c2ccccn2)nc2ccccc12
CC50 [5]: 19.6 µM (active) | CC50 [6]: > 20 µM (active) | IC50 (cells): 3.56 µM (active) | CC50 [7]: > 40 µM (active)

CC(C)CNC(=O)CCCc1ccccc1
IC50 [8]: > 83.4 µM (inactive) | IC50 [9]: > 109 µM (inactive)

CCOc1cc(N2CCOCC2)c(OCC)cc1NS(=O)(=O)c1cc(NC(C)=O)ccc1OC
AC50 (Caspase-6): 34.5 µM (active)

CCN1CCN(c2ccc(S(=O)(=O)N3CCOCC3)cc2NC(=O)C(C)Oc2ccc(Cl)cc2)CC1 (stereo not given)
IC50 [10]: 14.7 µM (active) | IC50 [11]: 9.56 µM (active)

O=C(CSc1nnc2c3c4c(sc3ncn12)CCCC4)NCc1ccco1
EC50 [12]: > 20 µM (not active) | EC50 [13]: 14.5 µM (active)

CC(=O)C[C@@H](O)CC(=O)[C@H]1OC(=O)CC/C=C\Cc2ccccc21
IC50 [8]: > 83.3 µM (inactive) | IC50 [9]: > 109 µM (inactive)

CC(=O)N1CCc2cc(Br)cc(S(=O)(=O)N3CCC(C(=O)O)CC3)c21
AC50 (Caspase-6): 30.4 µM (active)

Cc1c(C(=O)N2CCC(C(N)=O)CC2)sc(N)c1C#N
IC50 (Prothrombin): > 50 µM (not active)

Cc1cc([N+](=O)[O-])cc(C)c1OCC(=O)N/N=C/c1ccc(OC(=O)c2ccccc2)cc1
IC50 [14]: > 43.8 µM (not active)

O=C(COc1cc(Cl)c(Cl)cc1Cl)N1CCN(c2ccccn2)CC1
IC50 (Prothrombin): > 50 µM (not active)

COc1ccc(-c2cn3nc4c(nc3n2)CCCC4)cc1
EC50 (HT-1080): > 50 µM (not active) | EC50 [15]: 0.46 µM (active)
